# Legend:
# BCDIN3D [1] = molecular target: T1, BCDIN3D (Homo sapiens, UniProt Q7Z5W3); test: BCDIN3D IC50 RFMS (RapidFire) assay with mini-helix; format: biochemical; settings: mini-helix substrate 0.2 μM, SAM 6 μM, 25 nM enzyme
# T1 sequence (Q7Z5W3 1-292): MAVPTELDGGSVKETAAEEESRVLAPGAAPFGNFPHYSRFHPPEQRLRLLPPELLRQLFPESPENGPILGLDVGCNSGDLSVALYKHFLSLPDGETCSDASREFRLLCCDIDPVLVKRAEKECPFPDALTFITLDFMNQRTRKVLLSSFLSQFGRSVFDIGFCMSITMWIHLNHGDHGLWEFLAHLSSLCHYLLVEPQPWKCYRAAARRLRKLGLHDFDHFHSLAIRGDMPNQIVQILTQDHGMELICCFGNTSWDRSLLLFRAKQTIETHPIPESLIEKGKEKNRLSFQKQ
# How it was run: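 25 nM enzyme preincubated 10 min at room temperature with compound (1% DMSO) in 25 mM Tris pH 8.0, 10 mM DTT, 1 mM EDTA, 0.03% BSA. Reaction started with 0.2 μM mini-helix plus 6 μM SAM, run 1 h at 37 °C, quenched with TCA; SAH product quantified by RapidFire MS against isotopic SAH standards.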
# BCDIN3D [2] = molecular target: T1, BCDIN3D; test: BCDIN3D InCellPulse thermal stability assay in transfected A549 cells; format: cell-based; settings: transiently transfected A549 cells, heat shock 58° C. 15 min
# How it was run: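 A549 cells transiently expressing BCDIN3D N-terminally fused to ePL ProLabel tag, 1500 cells/well, pre-incubated 1 h at 37 °C with compound (0.6% DMSO). Heat shock 58 °C for 15 min; remaining soluble fusion detected by split β-galactosidase complementation luminescence.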
Compound,IC50 (BCDIN3D [1]),IC50 (BCDIN3D [2])
"CNc1nc(NCC(C)(N)c2ccccc2)nc2c1cnn2C (centres unmarked) [Compound 4.39, 6-N-(2-amino-2-phenylpropyl)-4-N,1-dimethylpyrazolo[3,4-d]pyrimidine-4,6-diamine]",9170 nM,17100 nM
"CNc1nc(NC[C@H](N)c2ccccc2)nc2c1cnn2C [Compound 4.40, 6-N-[(2R)-2-amino-2-phenylethyl]-4-N,1-dimethylpyrazolo[3,4-d]pyrimidine-4,6-diamine]",3630 nM,4790 nM
"CCNc1nc(NCC(N)c2ccccc2)nc2c1cnn2C (centres unmarked) [Compound 4.41, 6-N-(2-amino-2-phenylethyl)-4-N-ethyl-1-methylpyrazolo[3,4-d]pyrimidine-4,6-diamine]",945 nM,3330 nM
"CCN(C)c1nc(NCC(N)c2ccccc2)nc2c1cnn2C (centres unmarked) [Compound 4.42, 6-N-(2-amino-2-phenylethyl)-4-N-ethyl-4-N,1-dimethylpyrazolo[3,4-d]pyrimidine-4,6-diamine]",2280 nM,7570 nM
"Cn1ncc2c(NC3CC3)nc(NCC(N)c3ccccc3)nc21 (centres unmarked) [Compound 4.43, 6-N-(2-amino-2-phenylethyl)-4-N-cyclopropyl-1-methylpyrazolo[3,4-d]pyrimidine-4,6-diamine]",2560 nM,4200 nM
"Cn1ncc2c(NCC(F)(F)F)nc(NCC(N)c3ccccc3)nc21 (centres unmarked) [Compound 4.44, 6-N-(2-amino-2-phenylethyl)-1-methyl-4-N-(2,2,2-trifluoroethyl)pyrazolo[3,4-d]pyrimidine-4,6-diamine]",527 nM,992 nM
"Cn1ncc2c(NCC(F)(F)F)nc(NC[C@H](N)c3ccccc3)nc21 [Compound 4.45, N6-[(2R)-2-amino-2-phenyl-ethyl]-1-methyl-N4-(2,2,2-trifluoroethyl)pyrazolo[3,4-d]pyrimidine-4,6-diamine]",316 nM,414 nM
"CC(C)Nc1nc(NCC(N)c2ccccc2)nc2c1cnn2C (centres unmarked) [Compound 4.46, 6-N-(2-amino-2-phenylethyl)-1-methyl-4-N-propan-2-ylpyrazolo[3,4-d]pyrimidine-4,6-diamine]",501 nM,1130 nM
"CC(C)Nc1nc(NC[C@H](N)c2ccccc2)nc2c1cnn2C [Compound 4.47, 6-N-[(2R)-2-amino-2-phenylethyl]-1-methyl-4-N-propan-2-ylpyrazolo[3,4-d]pyrimidine-4,6-diamine]",253 nM,667 nM
"Cn1ncc2c(N3CCCC3)nc(NCC(N)c3ccccc3)nc21 (centres unmarked) [Compound 4.48, N′-(1-methyl-4-pyrrolidin-1-ylpyrazolo[3,4-d]pyrimidin-6-yl)-1-phenylethane-1,2-diamine]",3860 nM,7400 nM
"COCCNc1nc(NCC(N)c2ccccc2)nc2c1cnn2C (centres unmarked) [Compound 4.49, 6-N-(2-amino-2-phenylethyl)-4-N-(2-methoxyethyl)-1-methylpyrazolo[3,4-d]pyrimidine-4,6-diamine]",3390 nM,6060 nM
"Cn1ncc2c(NC(C)(C)C)nc(NCC(N)c3ccccc3)nc21 (centres unmarked) [Compound 4.50, 6-N-(2-amino-2-phenylethyl)-4-N-tert-butyl-1-methylpyrazolo[3,4-d]pyrimidine-4,6-diamine]",196 nM,871 nM
"Cn1ncc2c(NC(C)(C)C)nc(NCC(C)(N)c3ccccc3)nc21 (centres unmarked) [Compound 4.51, N6-(2-amino-2-phenyl-propyl)-N4-tert-butyl-1-methyl-pyrazolo[3,4-d]pyrimidine-4,6-diamine]",581 nM,1810 nM
"[2H]C([2H])([2H])n1ncc2c(NC(C)(C)C)nc(NCC(N)c3ccccc3)nc21 (centres unmarked) [Compound 4.52, N6-(2-amino-2-phenyl-ethyl)-N4-tert-butyl-1-(trideuteriomethyl)pyrazolo[3,4-d]pyrimidine-4,6-diamine]",169 nM,536 nM
"Cn1ncc2c(NC(C)(C)C)nc(NC[C@H](N)c3ccccc3)nc21 [Compound 4.53, 6-N-[(2R)-2-amino-2-phenylethyl]-4-N-tert-butyl-1-methylpyrazolo[3,4-d]pyrimidine-4,6-diamine]",118 nM,282 nM
"Cn1ncc2c(NC(C)(C)C)nc(NC[C@@H](N)c3ccccc3)nc21 [Compound 4.54, 6-N-[(2S)-2-amino-2-phenylethyl]-4-N-tert-butyl-1-methylpyrazolo[3,4-d]pyrimidine-4,6-diamine]",1970 nM,3110 nM

Compound,IC50 (BCDIN3D [1]),IC50 (BCDIN3D [2])
"[2H]C([2H])([2H])n1ncc2c(NC(C)(C)C)nc(NC[C@H](N)c3ccccc3)nc21 [Compound 4.55, N6-[(2R)-2-amino-2-phenyl-ethyl]-N4-tert-butyl-1-(trideuteriomethyl)pyrazolo[3,4-d]pyrimidine-4,6-diamine]",133 nM,152 nM
"Cn1ncc2c(NCC3CC3)nc(NCC(N)c3ccccc3)nc21 (centres unmarked) [Compound 4.56, 6-N-(2-amino-2-phenylethyl)-4-N-(cyclopropylmethyl)-1-methylpyrazolo[3,4-d]pyrimidine-4,6-diamine]",3470 nM,7270 nM
"Cn1ncc2c(NC(C3CC3)C3CC3)nc(NCC(N)c3ccccc3)nc21 (centres unmarked) [Compound 4.57, N6-(2-amino-2-phenyl-ethyl)-N4-(dicyclopropylmethyl)-1-methyl-pyrazolo[3,4-d]pyrimidine-4,6-diamine]",6450 nM,2720 nM
"CC1CC1CNc1nc(NC[C@H](N)c2ccccc2)nc2c1cnn2C (stereo partly drawn) [Compound 4.58, N6-[(2R)-2-amino-2-phenyl-ethyl]-1-methyl-N4-[(2-methylcyclopropyl)methyl]pyrazolo[3,4-d]pyrimidine-4,6-diamine]",70.4 nM,184 nM
"Cn1ncc2c(NC(C)(C)C3CC3)nc(NC[C@H](N)c3ccccc3)nc21 [Compound 4.59, N6-[(2R)-2-amino-2-phenyl-ethyl]-N4-(1-cyclopropyl-1-methyl-ethyl)-1-methyl-pyrazolo[3,4-d]pyrimidine-4,6-diamine]",109 nM,77.5 nM
"Cn1ncc2c(NCC3CC34CC4)nc(NC[C@H](N)c3ccccc3)nc21 (stereo partly drawn) [Compound 4.60, N6-[(2R)-2-amino-2-phenyl-ethyl]-1-methyl-N4-(spiro[2.2]pentan-2-ylmethyl)pyrazolo[3,4-d]pyrimidine-4,6-diamine]",6.1 nM,44.4 nM
"Cn1ncc2c(NCC3CC3(F)F)nc(NC[C@H](N)c3ccccc3)nc21 (stereo partly drawn) [Compound 4.61, N6-[(2R)-2-amino-2-phenyl-ethyl]-N4-[(2,2-difluorocyclopropyl)methyl]-1-methyl-pyrazolo[3,4-d]pyrimidine-4,6-diamine]",266 nM,378 nM
"Cn1ncc2c(NCC3CC3(C)C)nc(NC[C@H](N)c3ccccc3)nc21 (stereo partly drawn) [Compound 4.62, N6-[(2R)-2-amino-2-phenyl-ethyl]-N4-[(2,2-dimethylcyclopropyl)methyl]-1-methyl-pyrazolo[3,4-d]pyrimidine-4,6-diamine]",6.1 nM,112 nM
"Cn1ncc2c(NC34CC(C#N)(C3)C4)nc(NCC(N)c3ccccc3)nc21 (centres unmarked) [Compound 4.64, 3-[[6-[(2-amino-2-phenylethyl)amino]-1-methylpyrazolo[3,4-d]pyrimidin-4-yl]amino]bicyclo[1.1.1]pentane-1-carbonitrile]",202 nM,949 nM
"Cn1ncc2c(NC34CC(F)(C3)C4)nc(NCC(N)c3ccccc3)nc21 (centres unmarked) [Compound 4.65, N6-(2-amino-2-phenylethyl)-N4-{3-fluorobicyclo[1.1.1]pentan-1-yl}-1-methyl-1H-pyrazolo[3,4-d]pyrimidine-4,6-diamine]",230 nM,616 nM
"Cn1ncc2c(NC34CC(C3)C4)nc(NC[C@H](N)c3ccccc3)nc21 [Compound 4.66, N6-[(2R)-2-amino-2-phenyl-ethyl]-N4-(3-bicyclo[1.1.1]pentanyl)-1-methyl-pyrazolo[3,4-d]pyrimidine-4,6-diamine]",128 nM,137 nM
"Cn1ncc2c(NC34CC(F)(C3)C4)nc(NC[C@H](N)c3ccccc3)nc21 [Compound 4.67, N6-[(2R)-2-amino-2-phenyl-ethyl]-N4-(3-fluoro-1-bicyclo[1.1.1]pentanyl)-1-methyl-pyrazolo[3,4-d]pyrimidine-4,6-diamine]",179 nM,168 nM
"Cn1ncc2c(NC3CCC(F)(F)CC3)nc(NCC(N)c3ccccc3)nc21 (centres unmarked) [Compound 4.68, 6-N-(2-amino-2-phenylethyl)-4-N-(4,4-difluorocyclohexyl)-1-methylpyrazolo[3,4-d]pyrimidine-4,6-diamine]",1140 nM,3240 nM
"Cn1ncc2c(NC3CCOCC3)nc(NC[C@H](N)c3ccccc3)nc21 [Compound 4.69, N6-[(2R)-2-amino-2-phenyl-ethyl]-1-methyl-N4-tetrahydropyran-4-yl-pyrazolo[3,4-d]pyrimidine-4,6-diamine]",851 nM,3140 nM
"Cn1ncc2c(NC(C)(C)CO)nc(NC[C@H](N)c3ccccc3)nc21 [Compound 4.71, 2-[[6-[[(2R)-2-amino-2-phenyl-ethyl]amino]-1-methyl-pyrazolo[3,4-d]pyrimidin-4-yl]amino]-2-methyl-propan-1-ol]",1400 nM,1200 nM
